# Experimental data: patent US9096555B2, “Methods for treating vascular leak syndrome” (Aerpio Therapeutics, Inc., priority 2009, dated 2015)
# “Also recorded” adds a separate entry of the source.
# Experiments:
# [1] = tested on: IL-2 induced hypotension and death; assay: Rescue of mice from IL-2 induced hypotension and death (systolic blood pressure); assay type: in vivo; conditions: C3H/HeN female mice; 400,000 IU of IL-2 and 40 mg/kg D91; after 5 days of treatment; FIG. 5
# Protocol: A represents the systolic blood pressure of C3H/HeN female mice treated with vehicle control. […] Measurements were taken after 5 days of treatment.
# A represents 0 mg/kg D91, B represents 1 mg/kg D91, C represents 3 mg/kg D91, D represents 10 mg/kg D91, and E represents 30 mg/kg D91.
# [2] = tested on: pAKT and pERK1/2 in EA.hy962 cells; assay: Western blot analysis of pAKT and pERK1/2 in EA.hy962 cells; assay type: cell-based; conditions: EA.hy962 cells cultured with varying amounts of D91 for 10 minutes; FIG. 9a
# Protocol: FIG. 9a depicts a Western blot analysis showing the increase in pAKT and pERK1/2 when EA.hy962 cells were cultured in the presence of varying amounts of […] for 10 minutes. FIG. 9b depicts a Western blot analysis showing the levels of pAKT, pERK1/2 and β-Actin when EA.hy962 cells were cultured in the presence of 10 μg/mL […] from start (T=0) to 120 minutes.
# [3] = tested on: LPS-induced acute kidney injury; assay: Liposaccharide (LPS) induced vascular leak model: acute kidney injury (BUN, renal neutrophil infiltration); assay type: in vivo; conditions: male C57BL6 mice
# Protocol: FIG. 7 depicts the level of blood urine nitrogen (BUN) in male C57BL6 mice injected i.p. with 0.2 mg E. coli lipopolysaccharides per 25 g body weight at 0 hours. Line (◯) represents mice receiving only LPS and line (●) represents mice receiving LPS and 50 mg/kg of D91 at 0, 8, and 16 hours.
# FIG. 8 depicts the level of LPS-induced renal neutrophil infiltration at 24 hours in male C57BL6 mice injected i.p. with 0.2 mg E. coli lipopolysaccharides per 25 g body weight at 0 hours. A depicts the neutrophil infiltration in sham (conrol), B depicts the neutrophil infiltration in male C57BL6 mice injected i.p. with 0.2 mg E. coli lipopolysaccharides per 25 g body weight and 50 mg/kg of D91, C depicts mice receiving only LPS.
# The following liposaccharide induced vascular leakage model can be used to confirm the ability of the disclosed compounds to decrease the effects of vascular leak syndrome caused by pathogens. […]
# Male C57BL6 mice, 9 to 10 weeks old, were injected i.p. with 0.2 mg E. Coli lipopolysaccharide per 25 g body weight at time 0. […] Serum samples were analyzed for blood urea nitrogen (BUN) as a marker of kidney function.
# Tissue samples from the animals were analyzed by high powered field microscopy to determine the number of polymorphonuclear leukocytes present.
# [4] = tested on: LPS-induced renal vascular leak; assay: LPS-induced renal vascular leak, 70 kDa fluorescent fixable dextran; assay type: in vivo; conditions: mice; LPS at time 0, D91 at 1, 6 and 16 h; sacrifice at 24 hours; FIG. 10c
# Protocol: FIG. 10a is a micrograph of a renal section from a mouse treated with vehicle control that is subsequently injected with 70 kDa fluorescent fixable dextran by intravenous catheter 2 minutes prior to sacrifice. G indicates glomerular capillaries where the dye should normally be contained.
# FIG. 10b is a micrograph showing the vascular leakage in cells of a renal section from a mouse treat with LPS that is subsequently injected with 70 kDa fluorescent fixable dextran by intravenous catheter 2 minutes prior to sacrifice.
# The pattern of staining in this section is similar to 10a.
# Phosphatase inhibition by the disclosed PTP-β inhibitors reduces LPS-induced renal vascular leak. Mice were injected with LPS at time 0 and D91 or vehicle at 1, 6, and 16 h. Two minutes prior to sacrifice at 24 hours 70 kDa fluorescent fixable dextrans were administered by intravenous catheter. […] FIG. 10a is a micrograph of the control sample for the 70 kDa sample wherein the Letter “G” represents glomerular capillaries where the dye should normally be contained. FIG. 10b represents a renal section taken from an LPS treated animal and FIG. 10c represents a renal section taken from an animal treated with LPS and D91.
# [5] = tested on: IL-2 induced VLS; assay: IL-2 induced vascular leak syndrome in mice (blood pressure, shock, mortality); assay type: in vivo; conditions: then 20 mg/kg for 3 days
# Protocol: Twenty-five mice were used for the following experiment. Five are selected as the control and received no treatment. The remaining twenty mice were divided into four groups of five mice each and dosed as follows over a period of 5 days:
# Tie-2 signal amplifier at 40 mg/kg for the first 2 days, then at 20 mg/kg for 3 days.
# (VSL mechanistic analysis.
# [6] = tested on: brain edema after tMCAO; assay: Vasogenic edema after transient focal cerebral ischemia (tMCAO); assay type: in vivo, Sprague-Dawley rats; conditions: rats; tMCAO 60 min; 15 mg/kg t.i.d. s.c. starting 1 hour after stroke onset; after the 48 hour MRI
# Protocol: 30 adult male Sprague-Dawley rats purchased from Charles River, Germany and weighing 250-330 g were used for the experiment. Animals were housed at a standard temperature (22±1° C.) and in a light-controlled environment (lights on from 7 am to 8 pm) with ad libitum access to food and water.
# Animals were grouped as follows:
# • Group A: 15 rats treated with Vehicle (2 mL/kg, t.i.d., s.c.) starting 1 hour after stroke onset • Group B: 15 rats treated with AKB-9778-AS (15 mg/kg, t.i.d., s.c.) starting 1 hour after stroke onset tMCAO
# Transient focal cerebral ischemia was produced by MCA occlusion in male Sprague-Dawley rats according to Koizumi with modifications (Koizumi et al., Jpn. J. Stroke 8:1-8, 1986). […] The rats were carefully monitored for possible post-surgical complications after the tMCAO. […]
# D91 or vehicle was administered s.c. three times a day. […] The body weight of each animal is measured daily. […]
# Tissue viability and vasogenic edema was determined using absolute T2 MRI. […] In addition to absolute T2, spin density (amount of MRI visible protons, indicator of vasogenic edema) ratio of ipsi and contralateral ROI's was determined by extrapolating signal intensity at TE=0 from multiple TE data (intercept of T2 fitting).
# For the determination of infarct volume, the same acquired T2-weighted images were analyzed using in-house written Matlab based software for morphometric measurement. […]
compound,measurement,setting,value
"COC(=O)N[C@@H](Cc1ccccc1)C(=O)N[C@@H](Cc1ccc(NS(=O)(=O)O)cc1)c1csc(-c2cccs2)n1 [Compound D91, 4-{(S)-2-[(S)-2-(methoxycarbonylamino)-3-phenylpropanamido]-2-[2-(thiophen-2-yl)thiazol-4-yl]ethyl}phenylsulfamic acid]",rescue from IL-2 induced hypotension and death (systolic blood pressure),[1],rescue of mice from IL-2 induced hypotension and death
same,pAKT and pERK1/2 (Western blot),[2],increase
same,blood urine nitrogen (BUN) level,"[3]; LPS 0.2 mg per 25 g i.p., D91 50 mg/kg at 0, 8 and 16 hours, at 24 hours, FIG. 7",less than 80 mg/dL
same,"number of PMN cells present (renal neutrophil infiltration), high powered field microscopy","[3]; LPS plus D91 50 mg/kg, 24 hours, average, FIG. 8",12
same,extrusion of 70 kDa fluorescent dextran dye beyond the small peritubular capillaries (renal vascular leak),[4],vascular integrity is preserved; also recorded: reduced
same,blood pressure,"[5]; IL-2 180,000 or 400,000 IU for 5 days plus D91 40 mg/kg first 2 days, FIG. 1",little effect on blood pressure
same,clinical symptoms of shock,"[5]; high dose IL-2 (400,000 IU, 5 days) plus D91 40 mg/kg first 2 days, FIG. 2",no signs of shock
same,IL-2 induced mortality,"[5]; high dose IL-2 (400,000 IU, 5 days) plus D91 40 mg/kg first 2 days, FIG. 3",survived
same,brain tissue wet weight in ischemic hemisphere (edema),[6],significantly lower
